Reference: patent US4916130A, “Platelet agglutination-inhibiting agent” (Green Cross Corporation, priority 1987, dated 1990)
pIC50: −log10 of the molar value.

Tests used:
[1] = test system: platelets (platelet-rich plasma), agglutination induced by arachidonic acid; assay: Inhibition of platelet agglutination induced by arachidonic acid (rat PRP, aggligometer); format: cell-based; conditions: 37° C., arachidonic acid 1 mM, 50% effective concentration from onset time of agglutination vs control group
Description: (§1) Blood was collected from the abdominal aorta of a sacrificed rat. The obtained blood was then mixed with a solution of 3.9% sodium citrate at a ratio of one part by volume of sodium citrate solution to nine parts by volume of the blood. The mixture was […] at 116×g for 10 minutes to give a platelet-rich plasma (PRP). The supernatant was further centrifuged at 1,638×g for 10 minutes to give a platelet-poor plasma (PPP). The PRP was diluted with the PPP so as to give a platelet concentration of […].
(§2) The agglutination of platelets was determined with an aggligometer (RINKADENKI HUSM type). Sample solutions of 25 μl were obtained by dissolving each test compound in methanol and adding the resulting solution to a physiological saline solution so as to give a final methanol concentration of 1%. These sample solutions were then added to 225 μl of PRP preliminarily maintained at 37° C. while stirring at 800 rpm. Three minutes thereafter, 50 μl of an agglutination inducer was added thereto while continuously stirring.
Arachidonic acid, when employed as the agglutination inducer, was added at a concentration of 1 mM. The 50% effective concentration of each test compound was calculated by comparing the onset time from the addition of the arachidonic acid to the initiation of the agglutination with that of the control group.

[2] = test system: platelets (platelet-rich plasma), agglutination induced by collagen; assay: Inhibition of platelet agglutination induced by collagen (rat PRP, aggligometer); format: cell-based; conditions: 37° C., collagen 0.14 mg/ml, from inhibition ratio for maximum thrombotic agglutination
Description: as §1, §2
Collagen, when employed as the agglutination inducer, was added at a concentration of 0.14 mg/ml. The 50% inhibition concentration of each test compound was calculated from the inhibition ratio thereof for the maximum thrombotic agglutination.

SMILES: CCCC=CC(=O)NCCSSCCNC(=O)C=CCCC [Compound 2, [SCH2 CH2 NH--COCH=CH(CH2)2 CH3]2]
- pIC50 [1]: 5.17
- pIC50 [2]: 5.40

SMILES: CCCCCC=CC(=O)NCCSSCCNC(=O)C=CCCCCC [Compound 4, [SCH2 CH2 NH--COCH=CH(CH2)4 CH3]2]
- pIC50 [1]: 3.87
- pIC50 [2]: 3.54

SMILES: CCC=CC(=O)NCCSSCCNC(=O)C=CCC [Compound 1, [SCH2 CH2 NH--COCH=CHCH2 CH3]2]
- pIC50 [1]: 4.89
- pIC50 [2]: 4.82

SMILES: CCCCC=CC(=O)NCCSSCCNC(=O)C=CCCCC [Compound 3, [SCH2 CH2 NH--COCH=CH(CH2)3 CH3]2]
- pIC50 [1]: 4.77
- pIC50 [2]: 4.59
